Laboratory results as given in PMC7414031, “Correlation between hemolytic activity, cytotoxicity and systemic in vivo toxicity of synthetic antimicrobial peptides” (Scientific Reports, 2020).
Converted amounts (≈) assume the structure as drawn. Square brackets hold non-standard residues; d marks the D form. Peptide text beside a SMILES is read from it. N(1-naphthylmethyl)Gly = O=C(O)CNCc1cccc2ccccc12; Nphe = O=C(O)CNCc1ccccc1; NBuGly = CCCCNCC(=O)O

How the values were obtained:
canine erythrocytes = assay: in vitro; format: cell-based, dog; conditions: for IC10 haemolysis: canine erythrocytes; for IC50: red cells of canine
Experimental: (§1) The haemolytic activity of the 24 structurally related peptides (Table 1) was evaluated in erythrocytes from four different species (human, canine, bovine and rat) employing standard methodology. The subsequent release of haemoglobin was used to assess haemolytic activity as function of peptide and peptidomimetic concentration, with concentrations ranging from 0.15 to 150 µM (Presented in whole in Supplementary information Table S1–S4).
(§2) Human and rat (Sprague–Dawley) blood samples were purchased by Bioreclamation IVT (Westbury, NY, USA), collected in tubes containing heparin as anticoagulant and stored at 4 °C before use. Dog and bovine whole blood was collected from in-house animals at Zoetis Animal Health, Kalamazoo, Michigan and stored at 4 °C in tubes containing heparin as anticoagulant. 10 mL of each whole blood sample were centrifuged at 1,500 × g for 5 min and the resulting plasma fraction was removed from the samples. The pellets were washed with an equal volume (10 mL) of saline, mixing by inversion. The centrifuging and washing steps were repeated 5 times. After the last washing step, a volume of PBS was added, and the resulting samples were diluted 1:10 with PBS to yield an RBC concentration of ~ 5 × 10^8 RBC/mL. The assay was performed in a 384-well polypropylene microplate (Greiner 784201, Greiner Bio-One International, GMBH) through a Bravo Liquid Handling Platform 384 system (Agilent Technologies, Santa Clara, CA, USA) according to the previously published procedures. The compounds were tested in serial 1:1 dilutions in PBS, with final concentrations ranging from 150 to 1.2 µM. Melittin was used as reference lytic peptide. 1% TritonX100 and PBS were used as positive and negative (diluent) controls, respectively. The final concentrations were obtained by adding to the wells 7 µL of each solution, melittin or PBS, followed by 63 µL of RBCs to each well. The plate was sealed, shaken on a plate shaker for 20 s, incubated for one hour at 37 °C. Finally, it was centrifuged at 1,500 × g for 5 min at room temperature. 60 µL of supernatants were removed from all plate wells via a Bravo 384 robot and transferred to a flat-bottomed 384-well plate (Greiner UV-Star #7810801, Greiner Bio-One International, GMBH). The plate was centrifuged at 1,000 g for 1 min to remove air bubbles and optical density was measured at 405 nm using a plate reader. Percentage of haemolysis was calculated with the following equation: %haemolysis=(absorbance of test sample)-absorbance of diluent/absorbance of positive control-absorbance of diluent×100.

in vitro [1] = format: cell-based, dog; conditions: dog
Experimental: as §1, §2

in vitro [2] = format: cell-based, bovine; conditions: bovine
Experimental: as §1, §2

Staphylococcus aureus = tested on: Staphylococcus aureus; design: method as in PMID 30842436; conditions: cited from earlier work
human erythrocytes [3] = assay: in vitro; format: cell-based; conditions: for IC10 haemolysis: human erythrocytes; for IC50: red cells of human
Experimental: as §1, §2

in vitro [4] = format: cell-based, human; conditions: human
Experimental: as §1, §2

rat erythrocytes = assay: in vitro; format: cell-based, rat (Sprague–Dawley); conditions: for IC10 haemolysis: rat erythrocytes; for IC50: red cells of rat
Experimental: as §1, §2

in vitro [5] = format: cell-based, rat (Sprague–Dawley); conditions: Sprague-Dawley, rat
Experimental: as §1, §2

[6] = tested on: Staphylococcus pseudintermedius; conditions: cited from earlier work; for S.p. MIC: Staphylococcus pseudintermedius, Table S5, in µM
human erythrocytes [7] = conditions: cited from earlier work
Pseudomonas aeruginosa = tested on: Pseudomonas aeruginosa; design: method as in PMID 30842436; conditions: cited from earlier work
bovine erythrocytes = assay: in vitro; format: cell-based; conditions: bovine erythrocytes
Experimental: as §1, §2

HeLa cells = format: cell-based, human; conditions: 1 h
Experimental: (§3) An immortalised human keratinocyte (HaCaT) cell line (Gift from David Gram Naym at Bispebjerg Hospital, Denmark), a human liver cancer cell line (HepG2; ATCC HB-8065) and a human epithelial cervical cancer cell line (HeLa; ATCC CCL-2) were cultured to ∼90% confluence after 21–25 h of growth under standard conditions (5% CO2 at 37 °C). Cells were cultured in Dulbecco’s Modified Eagle’s Medium supplemented with 10% (v/v) fetal bovine serum (FBS). All culture media were supplemented with penicillin (100 IU/mL) and streptomycin (100 μg/mL). All cell media and supplements were obtained from Sigma-Aldrich (St. Louis, MO, United States). The 96-well plates were supplied by Corning Costar (Sigma-Aldrich, Brøndby, Denmark). Cell viability assessment was performed on cell monolayers grown to ∼90% confluence in 96-well plates by using the MTS/PMS assay as previously described. Briefly, the adhered cells were washed with PBS solution (37 °C) (ThermoFisher Scientific, Roskilde) and exposed for 1 h at 37 °C to 100 μL of peptides dissolved in the medium also used for culturing of the cell line (at concentrations in the range 0–1,000 μg/mL). The cells were subsequently washed twice with 37 °C PBS and then 100 μL of an MTS/PMS solution in media, consisting of 240 μg/mL MTS (Promega, Madison, WI, United States) and 2.4 mg/mL PMS (Promega, Madison, WI, United States), was added to the cells, which then were incubated for 1 h at 37 °C protected from light. A plate reader (SpectraMax i3X; Molecular devices, San Jose, CA) was used to measure the absorbance at 492 nm. The relative viability was calculated by using 0.2% (w/v) sodium dodecyl sulfate (SDS) as the positive control, while cells exposed to medium without test compound were used as the negative control.

HaCaT cells = format: cell-based, human; conditions: 1 h
Experimental: as §3

Row | Compound | IC50 (canine erythrocytes) | IC50 (human erythrocytes [3]) | IC50 (rat erythrocytes) | IC50 (HeLa cells) | IC10 haemolysis (canine erythrocytes) | hemolysis at 1 h, 150 µM (in vitro [1]) | hemolysis at 1 h, 150 µM (in vitro [2]) | MIC against Staphylococcus aureus (Staphylococcus aureus) | IC10 haemolysis (human erythrocytes [3]) | hemolysis at 1 h, 150 µM (in vitro [4]) | IC10 haemolysis (rat erythrocytes) | hemolysis at 1 h, 150 µM (in vitro [5]) | MIC against Staphylococcus pseudintermedius [6] | Previously reported haemolytic activity against human erythrocytes (in words) (human erythrocytes [7]) | MIC against Pseudomonas aeruginosa (Pseudomonas aeruginosa) | IC10 haemolysis (bovine erythrocytes) | IC50 (HaCaT cells) | S.p. MIC [6] | Haemolysis at 80 µM (in words) (canine erythrocytes) | Haemolysis at 80 µM (in words) (human erythrocytes [3]) | also measured
1 | CC(C)C[C@@H](NC(=O)[C@H](CCCCN)NC(=O)[C@@H](Cc1cccc2ccccc12)NC(=O)[C@@H](Cc1ccccc1)NC(=O)[C@H](N)Cc1cccc2ccccc12)C(=O)N[C@@H](CCCCN)C(=O)N[C@@H](CCCCN)C(N)=O [Compound 8, (1-Nal)Ala-Phe-(1-Nal)Ala-Lys-Leu-Lys-Lys] (HELM PEPTIDE1{[N[C@H](Cc1cccc2ccccc12)C(=O)[*:2]].[dF].[O=C([C@@H](Cc1cccc2ccccc12)N[*:1])[*:2]].K.[dL].K.K.[am]}$$$$V2.0) | > 150 µM | > 150 µM | > 150 µM | – | 66.0 µM | 25.8% | < 8% | 32 to 64 µg/mL | 57.0 µM | 34.3% | > 150 µM | < 8% | 16 µg/mL (≈ 15.1 µM) | no haemolytic activity | > 64 µg/mL | – | – | – | – | – | –
2 | CC(C)C[C@H](NC(=O)[C@H](CCCCN)NC(=O)[C@@H](N)CCCCN)C(=O)N[C@@H](CCCCN)C(=O)N[C@@H](Cc1ccc2ccccc2c1)C(=O)N[C@@H](Cc1ccccc1)C(=O)N[C@@H](Cc1ccc2ccccc2c1)C(N)=O [Compound 1, Lys-Lys-Leu-Lys-(2-Nal)Ala-Phe-(2-Nal-)Ala] (HELM PEPTIDE1{K.K.L.K.[O=C([C@H](Cc1ccc2ccccc2c1)N[*:1])[*:2]].F.[O=C([C@H](Cc1ccc2ccccc2c1)N[*:1])[*:2]].[am]}$$$$V2.0) | > 150 µM | > 150 µM | > 150 µM | 462 µM | 34.2 µM | 19.7% | 32.5% | 16 µg/mL (≈ 15.1 µM) | > 150 µM | < 8% | > 150 µM | < 8% | 8 µg/mL (≈ 7.57 µM) | – | 32 µg/mL (≈ 30.3 µM) | 45.1 µM | 654 µM | 7.6 µM | – | – | –
3 | CCCC[C@H](NC(=O)[C@H](CCCCN)NC(=O)[C@H](CCCCN)NC(=O)[C@@H](N)CCCCN)C(=O)N[C@@H](Cc1ccc2ccccc2c1)C(=O)N[C@@H](Cc1ccccc1)C(=O)N[C@@H](Cc1ccc2ccccc2c1)C(N)=O [Compound 18, Lys-Lys-Lys-Nle-(2-Nal)Ala-Phe-(2-Nal)Ala] (HELM PEPTIDE1{K.K.K.[Nle].[O=C([C@H](Cc1ccc2ccccc2c1)N[*:1])[*:2]].F.[O=C([C@H](Cc1ccc2ccccc2c1)N[*:1])[*:2]].[am]}$$$$V2.0) | 42.7 µM | 95.6 µM | 87.8 µM | – | 21.4 µM | 101% | < 8% | 32 to 64 µg/mL | 18.7 µM | 58.8% | 64.4 µM | 98.6% | 2 to 4 µg/mL | high in vitro haemolytic activity | 8 µg/mL (≈ 7.57 µM) | – | – | – | near total haemolysis | near total haemolysis | Haemolysis at 80 µM (in words) (rat erythrocytes): near total haemolysis

Second part, led by results:

Row | IC50 (canine erythrocytes) | IC50 (human erythrocytes [3]) | IC50 (rat erythrocytes) | IC50 (HeLa cells) | Compound | IC10 haemolysis (canine erythrocytes) | hemolysis at 1 h, 150 µM (in vitro [1]) | hemolysis at 1 h, 150 µM (in vitro [2]) | MIC against Staphylococcus aureus (Staphylococcus aureus) | IC10 haemolysis (human erythrocytes [3]) | hemolysis at 1 h, 150 µM (in vitro [4]) | IC10 haemolysis (rat erythrocytes) | hemolysis at 1 h, 150 µM (in vitro [5]) | MIC against Staphylococcus pseudintermedius [6] | Previously reported haemolytic activity against human erythrocytes (in words) (human erythrocytes [7]) | MIC against Pseudomonas aeruginosa (Pseudomonas aeruginosa) | IC10 haemolysis (bovine erythrocytes) | IC50 (HaCaT cells) | S.p. MIC [6] | Haemolysis at 80 µM (in words) (canine erythrocytes) | Haemolysis at 80 µM (in words) (human erythrocytes [3]) | also measured
4 | 37 µM | > 150 µM | > 150 µM | – | CC(C)C[C@H](NC(=O)[C@H](CCCCN)NC(=O)[C@@H](N)CCCCN)C(=O)N[C@@H](CCCCN)C(=O)N[C@@H](Cc1cccc2ccccc12)C(=O)N[C@@H](Cc1ccccc1)C(=O)N[C@@H](Cc1cccc2ccccc12)C(N)=O [Compound 6, Lys-Lys-Leu-Lys-(1-Nal)Ala-Phe-(1-Nal)Ala] (HELM PEPTIDE1{K.K.L.K.[O=C([C@H](Cc1cccc2ccccc12)N[*:1])[*:2]].F.[O=C([C@H](Cc1cccc2ccccc12)N[*:1])[*:2]].[am]}$$$$V2.0; N-terminus assumed) | 12.2 µM | 101% | 39.9% | 32 µg/mL (≈ 30.3 µM) | 55.6 µM | 42.7% | 120.5 µM | 18.2% | 8 µg/mL (≈ 7.57 µM) | high in vitro haemolytic activity | 8 µg/mL (≈ 7.57 µM) | 23.6 µM | – | – | – | – | –
5 | > 150 µM | > 150 µM | > 150 µM | – | CC(C)C[C@@H](NC(=O)[C@@H](Cc1cccc2ccccc12)NC(=O)[C@@H](Cc1ccccc1)NC(=O)[C@H](N)Cc1cccc2ccccc12)C(=O)N[C@@H](CCCCN)C(=O)N[C@@H](CCCCN)C(=O)N[C@@H](CCCCN)C(N)=O [Compound 9, (1-Nal)Ala-Phe-(1-Nal)Ala-Leu-Lys-Lys-Lys] (HELM PEPTIDE1{[N[C@H](Cc1cccc2ccccc12)C(=O)[*:2]].[dF].[O=C([C@@H](Cc1cccc2ccccc12)N[*:1])[*:2]].[dL].K.K.K.[am]}$$$$V2.0) | 65.0 µM | 25.5% | < 8% | 32 µg/mL (≈ 30.3 µM) | 104.1 µM | 30.8% | > 150 µM | < 8% | 16 µg/mL (≈ 15.1 µM) | no haemolytic activity | 32 µg/mL (≈ 30.3 µM) | – | – | – | – | – | –
6 | 65.7 µM | 41.7 µM | 47.6 µM | 394 µM | CCCCN(CC(=O)N(CC(=O)N(CC(=O)N(CC(N)=O)Cc1cccc2ccccc12)Cc1ccccc1)Cc1cccc2ccccc12)C(=O)[C@H](CCCCN)NC(=O)[C@H](CCCCN)NC(=O)[C@@H](N)CCCCN [Compound 15, Lys-Lys-Lys-(N-Bu)Gly-(N1-Nal)Gly-(N-Phe)Gly-(N1-Nal)Gly] (H-KKK[NBuGly][N(1-naphthylmethyl)Gly][Nphe][N(1-naphthylmethyl)Gly]-NH2) | 11.6 µM | 87.1% | < 8% | 16 µg/mL (≈ 15.1 µM) | 8.4 µM | 94.2% | 35.61 µM | 99.5% | 4 µg/mL (≈ 3.79 µM) | – | 32 µg/mL (≈ 30.3 µM) | – | 297 µM | 3.8 µM | near total haemolysis | near total haemolysis | Haemolysis at 80 µM (in words) (rat erythrocytes): near total haemolysis
